Legend:
Test in all cases: fitness (endpoint OD595 vs no drug) (fraction); higher = more growth
S. aureus DSM 20231 = tested on: S. aureus DSM 20231
Procedure, shortened: (§1)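 Bacterial fitness was scored as optical density at the stationary-phase transition relative to the robust mean of no-drug control wells. Scores are capped at 1. The growth data were OD595 readings every 30 min for 14 h at 37 °C, background-subtracted against the first reading, from 384-well plates inoculated at OD595 0.01 in TSB, LB Lennox or CY.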

B. subtilis 168 = tested on: B. subtilis 168
Procedure, shortened: as §1

S. aureus Newman = tested on: S. aureus Newman
Procedure, shortened: as §1

S. pneumoniae D39V = tested on: S. pneumoniae D39V
Procedure, shortened: as §1
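Note: OD595 on entry to stationary phase over no-drug wells; at most 1.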

CO/N=C(\C(=O)N[C@@H]1C(=O)N2C(C(=O)O)=C(COC(C)=O)CS[C@H]12)c1csc(N)n1 [Cefotaxime] + N[C@@H]1CONC1=O [Cycloserine D]
Settings	fitness
B. subtilis 168, first compound 0.5 µg/mL, partner 0.125 µg/mL	0.333
B. subtilis 168, first compound 0.5 µg/mL, partner 0.25 µg/mL	0.28
B. subtilis 168, first compound 1 µg/mL, partner 0.125 µg/mL	0.162
B. subtilis 168, first compound 1 µg/mL, partner 0.25 µg/mL	0.169
B. subtilis 168, first compound 1 µg/mL, partner 0.5 µg/mL	0.162
B. subtilis 168, first compound 2 µg/mL, partner 0.125 µg/mL	0.16
B. subtilis 168, first compound 2 µg/mL, partner 0.25 µg/mL	0.182
B. subtilis 168, first compound 2 µg/mL, partner 0.5 µg/mL	0.15
S. aureus DSM 20231, first compound 0.039 µg/mL, partner 0.375 µg/mL	0.822
S. aureus DSM 20231, first compound 0.039 µg/mL, partner 0.75 µg/mL	0.822
S. aureus DSM 20231, first compound 0.039 µg/mL, partner 1.5 µg/mL	0.835
S. aureus DSM 20231, first compound 0.078 µg/mL, partner 0.375 µg/mL	0.789
S. aureus DSM 20231, first compound 0.078 µg/mL, partner 0.75 µg/mL	0.853
S. aureus DSM 20231, first compound 0.078 µg/mL, partner 1.5 µg/mL	0.748
S. aureus DSM 20231, first compound 0.156 µg/mL, partner 0.375 µg/mL	0.736
S. aureus DSM 20231, first compound 0.156 µg/mL, partner 0.75 µg/mL	0.772
S. aureus DSM 20231, first compound 0.156 µg/mL, partner 1.5 µg/mL	0.696
S. aureus DSM 20231, first compound 0.312 µg/mL, partner 0.375 µg/mL	0.652
S. aureus DSM 20231, first compound 0.312 µg/mL, partner 0.75 µg/mL	0.638
S. aureus DSM 20231, first compound 0.312 µg/mL, partner 1.5 µg/mL	0.584
S. aureus Newman, first compound 0.078 µg/mL, partner 0.375 µg/mL	0.736
S. aureus Newman, first compound 0.078 µg/mL, partner 0.75 µg/mL	0.828
S. aureus Newman, first compound 0.078 µg/mL, partner 1.5 µg/mL	0.785
S. aureus Newman, first compound 0.156 µg/mL, partner 0.375 µg/mL	0.601
S. aureus Newman, first compound 0.156 µg/mL, partner 0.75 µg/mL	0.604
S. aureus Newman, first compound 0.156 µg/mL, partner 1.5 µg/mL	0.629
S. aureus Newman, first compound 0.312 µg/mL, partner 0.375 µg/mL	0.345
S. aureus Newman, first compound 0.312 µg/mL, partner 0.75 µg/mL	0.326
S. aureus Newman, first compound 0.312 µg/mL, partner 1.5 µg/mL	0.305
S. aureus Newman, first compound 0.625 µg/mL, partner 0.375 µg/mL	0.186
S. aureus Newman, first compound 0.625 µg/mL, partner 0.75 µg/mL	0.121
S. aureus Newman, first compound 0.625 µg/mL, partner 1.5 µg/mL	0.0813
S. aureus Newman, first compound 1.25 µg/mL, partner 0.375 µg/mL	0.0332
S. aureus Newman, first compound 1.25 µg/mL, partner 0.75 µg/mL	0.0383
S. aureus Newman, first compound 1.25 µg/mL, partner 1.5 µg/mL	0.0209
S. aureus Newman, first compound 2.5 µg/mL, partner 0.375 µg/mL	0.0595
S. aureus Newman, first compound 2.5 µg/mL, partner 0.75 µg/mL	0.0506
S. aureus Newman, first compound 2.5 µg/mL, partner 1.5 µg/mL	0.0484

fitness, B. subtilis 168, one replicate
Settings	first compound 0.00775 µg/mL	first compound 0.0155 µg/mL	first compound 0.031 µg/mL	first compound 0.0625 µg/mL	first compound 0.125 µg/mL	first compound 0.25 µg/mL
partner 0.125 µg/mL	0.876	0.666	0.554	0.498	0.353	0.296
partner 0.25 µg/mL	0.888	0.756	0.561	0.524	0.401	0.31
partner 0.5 µg/mL	0.802	0.733	0.566	0.477	0.363	0.267

CN(C)[C@@H]1C(O)=C(C(N)=O)C(=O)[C@@]2(O)C(O)=C3C(=O)c4c(O)ccc(Cl)c4[C@@](C)(O)[C@H]3C[C@@H]12 [Chlortetracycline] + C[C@@H]1O[C@@H]1P(=O)(O)O [Fosfomycin]
S. aureus DSM 20231, first compound 0.006 µg/mL, one replicate
Settings	fitness
partner 0.781 µg/mL	0.609
partner 1.562 µg/mL	0.47
partner 3.124 µg/mL	0.205

Settings	fitness
B. subtilis 168, first compound 0.0475 µg/mL, partner 1.562 µg/mL	0.713
B. subtilis 168, first compound 0.0475 µg/mL, partner 3.124 µg/mL	0.636
B. subtilis 168, first compound 0.0475 µg/mL, partner 6.248 µg/mL	0.498
B. subtilis 168, first compound 0.095 µg/mL, partner 1.562 µg/mL	0.629
B. subtilis 168, first compound 0.095 µg/mL, partner 3.124 µg/mL	0.557
B. subtilis 168, first compound 0.095 µg/mL, partner 6.248 µg/mL	0.408
B. subtilis 168, first compound 0.19 µg/mL, partner 3.124 µg/mL	0.336
B. subtilis 168, first compound 0.19 µg/mL, partner 6.248 µg/mL	0.19
S. aureus DSM 20231, first compound 0.012 µg/mL, partner 0.781 µg/mL	0.309
S. aureus DSM 20231, first compound 0.012 µg/mL, partner 1.562 µg/mL	0.145
S. aureus DSM 20231, first compound 0.012 µg/mL, partner 3.124 µg/mL	0.0645
S. aureus DSM 20231, first compound 0.024 µg/mL, partner 0.781 µg/mL	0.154
S. aureus DSM 20231, first compound 0.024 µg/mL, partner 1.562 µg/mL	0.0553
S. aureus DSM 20231, first compound 0.024 µg/mL, partner 3.124 µg/mL	0.0457
S. aureus DSM 20231, first compound 0.048 µg/mL, partner 0.781 µg/mL	0.0506
S. aureus DSM 20231, first compound 0.048 µg/mL, partner 1.562 µg/mL	0.0192
S. aureus DSM 20231, first compound 0.048 µg/mL, partner 3.124 µg/mL	0.0143
S. pneumoniae D39V, first compound 0.012 µg/mL, partner 1.25 µg/mL	0.936
S. pneumoniae D39V, first compound 0.012 µg/mL, partner 2.5 µg/mL	0.881
S. pneumoniae D39V, first compound 0.012 µg/mL, partner 5 µg/mL	0.777
S. pneumoniae D39V, first compound 0.024 µg/mL, partner 1.25 µg/mL	0.629
S. pneumoniae D39V, first compound 0.024 µg/mL, partner 2.5 µg/mL	0.625
S. pneumoniae D39V, first compound 0.024 µg/mL, partner 5 µg/mL	0.628
S. pneumoniae D39V, first compound 0.048 µg/mL, partner 1.25 µg/mL	0.303
S. pneumoniae D39V, first compound 0.048 µg/mL, partner 2.5 µg/mL	0.31
S. pneumoniae D39V, first compound 0.048 µg/mL, partner 5 µg/mL	0.319
S. pneumoniae D39V, first compound 0.375 µg/mL, partner 1.25 µg/mL	0.045
S. pneumoniae D39V, first compound 0.375 µg/mL, partner 2.5 µg/mL	0.0463
S. pneumoniae D39V, first compound 0.375 µg/mL, partner 5 µg/mL	0.0538
S. pneumoniae D39V, first compound 0.75 µg/mL, partner 1.25 µg/mL	0.0544
S. pneumoniae D39V, first compound 0.75 µg/mL, partner 2.5 µg/mL	0.0368
S. pneumoniae D39V, first compound 0.75 µg/mL, partner 5 µg/mL	0.0501
S. pneumoniae D39V, first compound 1.5 µg/mL, partner 1.25 µg/mL	0.0742
S. pneumoniae D39V, first compound 1.5 µg/mL, partner 2.5 µg/mL	0.0712
S. pneumoniae D39V, first compound 1.5 µg/mL, partner 5 µg/mL	0.0865

CN(C)[C@@H]1C(O)=C(C(N)=O)C(=O)[C@@]2(O)C(O)=C3C(=O)c4c(O)ccc(Cl)c4[C@@](C)(O)[C@H]3C[C@@H]12 [Chlortetracycline] + C[n+]1ccc(-c2cc[n+](C)cc2)cc1 [Paraquat]
fitness, one replicate
Settings	partner 1.25 µg/mL	partner 1.5 µg/mL	partner 2.5 µg/mL	partner 3 µg/mL	partner 5 µg/mL	partner 6 µg/mL
S. aureus DSM 20231, first compound 0.006 µg/mL	0.72	–	0.718	–	0.704	–
S. pneumoniae D39V, first compound 0.012 µg/mL	–	0.976	–	≥ 1	–	≥ 1
S. pneumoniae D39V, first compound 0.024 µg/mL	–	0.941	–	0.95	–	0.987
S. pneumoniae D39V, first compound 0.048 µg/mL	–	0.852	–	0.868	–	0.875

fitness
Settings	partner 1.25 µg/mL	partner 1.5 µg/mL	partner 2.5 µg/mL	partner 3 µg/mL	partner 5 µg/mL	partner 6 µg/mL
B. subtilis 168, first compound 0.0475 µg/mL	0.92	–	0.877	–	0.839	–
B. subtilis 168, first compound 0.095 µg/mL	0.805	–	0.748	–	0.715	–
B. subtilis 168, first compound 0.19 µg/mL	0.609	–	0.524	–	0.429	–
S. aureus DSM 20231, first compound 0.012 µg/mL	0.568	–	0.597	–	0.574	–
S. aureus DSM 20231, first compound 0.024 µg/mL	0.266	–	0.294	–	0.261	–
S. aureus DSM 20231, first compound 0.048 µg/mL	0.0591	–	0.169	–	0.0904	–
S. pneumoniae D39V, first compound 0.375 µg/mL	–	0.073	–	0.0531	–	0.0597
S. pneumoniae D39V, first compound 0.75 µg/mL	–	0.055	–	0.0649	–	0.0514
S. pneumoniae D39V, first compound 1.5 µg/mL	–	0.048	–	0.0551	–	0.0491

From the supplement of paper PMC10627819
